Experimental data from US20040242650A1, “Extended dosing regimen” (priority 2003, published 2004).
Marks after values point to notes of the source that are not given here.

Experiments:
[1] = system: MDA-MB-468 breast subcutaneous flank xenografts; assay: MDA-MB-468 breast flank xenograft model; assay type: in vivo, female nude mice; settings: for Tumor Volume Day 38: mean ± SEM; for % ILS: median, time to 1 cc vs vehicle; for % T/C Day 38: treated vs vehicle
Method: (§1) Efficacy of N-[2-[(4-hydroxyphenyl)amino]-3-pyridyl]-4-methoxybenzenesulfonamide was tested in Calu-6 NSCL, MDA-MB-468 breast and HT-29 colon carcinoma xenografts grown in nude mice. The objectives were determination of the efficacy of N-[2-[(4-hydroxyphenyl)amino]-3-pyridyl]-4-methoxybenzenesulfonamide as a single agent and in combination with cisplatin in the Calu-6 NSCL flank xenograft model; determination the efficacy of N-[2-[(4-hydroxyphenyl)amino]-3-pyridyl]-4-methoxybenzenesulfonamide as a single agent and in combination with docetaxel in the MDA-MB 468 breast flank xenograft model; determination of the efficacy of N-[2-[(4-hydroxyphenyl)amino]-3-pyridyl]-4-methoxybenzenesulfonamide as a single agent and in combination with 5-FU in the HT-29 colon flank xenograft model; and comparison the efficacy of N-[2-[(4-hydroxyphenyl)amino]-3-pyridyl]-4-methoxybenzenesulfonamide administered on 2 different schedules (q.d. vs b.i.d.) in the Calu-6 and HT-29 xenogaft model.
(§2) Following inoculation of tumor cells, tumors were passaged three times in mice before using the fragments to generate single cell suspensions. Multiple animals were used as donors. Single cell suspensions were generated by homogenizing the minced tumor tissue in RPMI 1640 media. Cell suspensions were washed three times to remove debris and other foreign materials. Viable cells were counted by trypan blue exclusion technique using a hemocytometer. Mice were injected subcutaneously with 0.5 ml of the cell suspension containing 1×10^6 cells.
Efficacy of N-[2-[(4-hydroxyphenyl)amino]-3-pyridyl]-4-methoxybenzenesulfonamide in the MDA-MB-468 Breast Flank Xenograft Model. Tumor cells derived from serially passaged tumor fragments were inoculated s.c. in female nude mice on day 0. On day 10, mice bearing established tumors were size matched at ˜231 mm^3 and placed into the following groups:
(§3) N-[2-[(4-hydroxyphenyl)amino]-3-pyridyl]-4-methoxybenzenesulfonamide—100, and 75 mg/kg/day (p.o., q.d., 5 days on, 5 days off ×2)
N-[2-[(4-hydroxyphenyl)amino]-3-pyridyl]-4-methoxybenzenesulfonamide—50 and 0 mg/kg/day (p.o., q.d. ×21)
Docetaxel—40, 33.3, 16.7 and 0 mg/kg/day (i.v., qd ×1)

[2] = system: Calu-6 lung subcutaneous flank xenografts; assay: Calu-6 flank xenograft model; assay type: in vivo, male nude mice; settings: for Tumor Volume Day 38: mean ± SEM; for % ILS: median, time to 1 cc vs vehicle; for % T/C Day 38: treated vs vehicle
Method: as §1, §2
Tumor cells were inoculated s.c. into male nude mice on day 0. On day 10, mice bearing established tumors were size matched at ˜233 mm^3 and placed into the following groups:
as §3
N-[2-[(4-hydroxyphenyl)amino]-3-pyridyl]-4-methoxybenzenesulfonamide—50 and 0 mg/kg/day (p.o., q.d. ×21 or p.o., b.i.d. ×21)
Cisplaitn—20, 10, 8 and 0 mg/kg/day (ip, qd ×1)
Combination Therapy—100/10, 75/10, 100/8 mg/kg/day (p.o., q.d., 5 days on, 5 days off ×2/ip, qd ×1), 50/10 mg/kg/day (p.o., q.d., ×21/ ip, qd ×1)

[3] = 75 mg/kg/day p.o., q.d., (5 days on, 5 days off) x2
[4] = 100 mg/kg/day p.o., q.d., (5 days on, 5 days off) x2

COc1ccc(S(=O)(=O)Nc2cccnc2Nc2ccc(O)cc2)cc1 [N-[2-[(4-hydroxyphenyl)amino]-3-pyridyl]-4-methoxybenzenesulfonamide]
Tumor Volume Day 38 ([1]; 50 mg/kg/day p.o., q.d x21): 1244 ± 59 mm^3 | % ILS ([1]; 50 mg/kg/day p.o., q.d x21): 41*** % | % T/C Day 38 ([1]; 50 mg/kg/day p.o., q.d x21): 46*** % | Tumor Volume Day 38 [1, 3]: 851 ± 55 mm^3 | % ILS [1, 3]: 52*** % | % T/C Day 38 [1, 3]: 33*** % | Tumor Volume Day 38 [1, 4]: 638 ± 48 mm^3 | % ILS [1, 4]: 78*** % | % T/C Day 38 [1, 4]: 25*** % | antitumor activity as a single agent ([1]; 100 and 75 mg/kg/day 5 days on, 5 days off for 2 cycles, 50 mg/kg/day daily): dose-dependent antitumor activity | efficacy of combination compared to single agents alone (summary) ([1]; in combination with docetaxel): equal to or greater than additive efficacy | response in combination with docetaxel ([1]; in combination with docetaxel at 33.3 mg/kg/day, all three doses tested): greater than additive responses | efficacy as a single agent (summary) ([1]; single agent): dose-dependent efficacy | Tumor Volume Day 38 ([2]; 50 mg/kg/day p.o., b.i.d x21): 1534 ± 47 mm^3 | % ILS ([2]; 50 mg/kg/day p.o., b.i.d x21): 58*** % | % T/C Day 38 ([2]; 50 mg/kg/day p.o., b.i.d x21): 56*** % | Tumor Volume Day 38 ([2]; 50 mg/kg/day p.o., q.d x21): 1455 ± 65 mm^3 | % ILS ([2]; 50 mg/kg/day p.o., q.d x21): 58*** % | % T/C Day 38 ([2]; 50 mg/kg/day p.o., q.d x21): 54*** % | Tumor Volume Day 38 [2, 3]: 1406 ± 65 mm^3 | % ILS [2, 3]: 58*** % | % T/C Day 38 [2, 3]: 50*** % | Tumor Volume Day 38 [2, 4]: 1022 ± 48 mm^3 | % ILS [2, 4]: 65*** % | % T/C Day 38 [2, 4]: 37*** % | antitumor activity as a single agent ([2]; 100 and 75 mg/kg/day, 5 days on, 5 days off for 2 cycles): significant antitumor activity | efficacy of combination compared to single agents alone (summary) ([2]; in combination with cisplatin): equal to or greater than additive efficacy | response in combination with cisplatin ([2]; in combination with cisplatin, all three doses tested): greater than additive responses | efficacy q.d. vs b.i.d. (summary) ([2]; q.d. or b.i.d. for 21 days): equal efficacy | efficacy as a single agent (summary) ([2]; single agent): dose-dependent efficacy
